Reference: patent US8765961B2, “Near infrared fluorescent imaging agent” (FUJIFILM Corporation, priority 2009, dated 2014)

Biological target: T1, albumin (Bos taurus, UniProt P02769)
T1 construct: The test substance was dissolved to 5 μg/mL in calf serum; from tissue; host or cells: calf serum
Assay: Serum protein binding rate test by ultracentrifugation, albumin fraction
Type: in vitro ADME
Conditions: 5 μg/mL in calf serum, 37° C., density gradient centrifugation, HPLC
Method: The test substance was dissolved to 5 μg/mL in calf serum, vibrated for 20 minutes at 37° C., and subjected to density gradient centrifugation (1,000,000×g, 24 h) using NaBr. Following the centrifugation, the dye concentrations in the albumin fraction, lipoprotein fraction, and the remaining fractions were quantified by HPLC.

T1 sequence (P02769 25-607): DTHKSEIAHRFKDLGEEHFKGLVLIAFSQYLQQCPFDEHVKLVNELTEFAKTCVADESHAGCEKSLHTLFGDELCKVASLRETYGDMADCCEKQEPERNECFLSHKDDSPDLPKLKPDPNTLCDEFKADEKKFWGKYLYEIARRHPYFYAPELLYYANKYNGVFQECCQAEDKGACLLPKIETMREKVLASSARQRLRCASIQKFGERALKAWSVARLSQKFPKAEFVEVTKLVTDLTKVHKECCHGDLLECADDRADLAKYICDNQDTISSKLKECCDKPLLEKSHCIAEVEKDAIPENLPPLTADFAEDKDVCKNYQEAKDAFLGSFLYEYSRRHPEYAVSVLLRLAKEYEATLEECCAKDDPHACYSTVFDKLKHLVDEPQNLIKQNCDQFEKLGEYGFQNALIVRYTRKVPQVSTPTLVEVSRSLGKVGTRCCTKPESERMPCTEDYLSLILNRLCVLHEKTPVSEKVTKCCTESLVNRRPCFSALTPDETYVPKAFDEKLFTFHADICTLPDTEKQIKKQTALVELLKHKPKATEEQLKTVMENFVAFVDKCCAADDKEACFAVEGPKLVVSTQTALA

SMILES: CC1(C)C(/C=C/C=C/C=C/C=C2\N(CCCCS(=O)(=O)O)c3ccc4ccccc4c3C2(C)C)=[N+](CCCCS(=O)(=O)[O-])c2ccc3ccccc3c21 [ICG, indocyanine green]
- Protein binding rate (%) Albumin: 18%
